Source: ChEMBL document CHEMBL1201862, “PubChem BioAssay data set” (2004)
Activity calls are given as the source filed them.

Legend:
[1] = molecular target: T1, Rac GTPase-activating protein 1 (Homo sapiens, UniProt Q9H0H5); experiment: blockers of MgcRacGAP-driven Rac1 GTP hydrolysis – biochemical, ADP Hunter fluorescence, primary and confirmatory, confirmation (AID 624330); type: functional
T1 sequence (Q9H0H5 whole entry): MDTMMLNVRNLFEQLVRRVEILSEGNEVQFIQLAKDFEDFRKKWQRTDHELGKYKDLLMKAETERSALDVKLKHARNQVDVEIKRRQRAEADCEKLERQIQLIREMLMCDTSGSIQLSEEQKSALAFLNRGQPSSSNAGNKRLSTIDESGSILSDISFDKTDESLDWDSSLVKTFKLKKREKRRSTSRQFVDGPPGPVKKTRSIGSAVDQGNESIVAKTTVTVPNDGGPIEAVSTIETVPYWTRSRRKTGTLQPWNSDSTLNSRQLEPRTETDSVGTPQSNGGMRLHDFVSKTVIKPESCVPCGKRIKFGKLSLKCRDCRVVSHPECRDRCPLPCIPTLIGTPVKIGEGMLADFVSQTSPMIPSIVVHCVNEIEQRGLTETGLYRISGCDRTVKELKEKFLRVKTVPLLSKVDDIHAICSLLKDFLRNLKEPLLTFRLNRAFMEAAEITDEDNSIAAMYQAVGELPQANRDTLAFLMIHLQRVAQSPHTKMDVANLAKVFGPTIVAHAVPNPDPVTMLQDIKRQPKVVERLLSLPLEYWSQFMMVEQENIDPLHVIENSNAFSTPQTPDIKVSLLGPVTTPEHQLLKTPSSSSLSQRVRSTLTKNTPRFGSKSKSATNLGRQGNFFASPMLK

[2] = test system: Streptococcus; experiment: GAS UMAA2166 growth inhibition – luminescence, BacTiterGlo, counter-screen for streptokinase expression inhibitor project, dose response (AID 1915); type: functional, organism-based;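 further: potency for reduction of bacterial viability or growth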
[3] = molecular target: T2, Streptokinase A (Streptococcus pyogenes serotype M1, UniProt P10520); experiment: viability-normalized secreted streptokinase activity reduction – plasminogen activation absorbance, OD405, dose response (AID 1914); type: functional, Streptococcus pyogenes M1 GAS;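 further: secreted streptokinase activity via plasminogen activation per viability signal from cell pellet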
T2 sequence (P10520 whole entry): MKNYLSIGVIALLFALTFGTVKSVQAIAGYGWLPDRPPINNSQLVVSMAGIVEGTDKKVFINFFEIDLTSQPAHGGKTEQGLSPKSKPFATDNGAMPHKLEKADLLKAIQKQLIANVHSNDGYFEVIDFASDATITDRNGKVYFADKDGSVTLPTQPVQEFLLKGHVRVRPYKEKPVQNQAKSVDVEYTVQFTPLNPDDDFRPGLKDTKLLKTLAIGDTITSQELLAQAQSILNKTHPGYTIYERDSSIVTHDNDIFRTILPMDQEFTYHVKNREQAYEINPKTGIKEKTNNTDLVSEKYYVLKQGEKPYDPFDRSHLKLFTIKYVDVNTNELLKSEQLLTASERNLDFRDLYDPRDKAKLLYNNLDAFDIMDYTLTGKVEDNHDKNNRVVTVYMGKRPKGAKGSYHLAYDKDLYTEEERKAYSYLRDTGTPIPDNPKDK

[4] = test system: Streptococcus sp. 'group A'; experiment: Streptococcus pyogenes SK(-)GAS viability under kanamycin – luminescence, BacTiterGlo, confirmation, counter-screen for streptokinase expression inhibitor project, dose response (AID 1900); type: functional, organism-based
[5] = viability of uninfected HEp-2 cells – cell-based, HTS, cytotoxicity control for RSV inhibitor project, dose response (AID 2410); type: functional; details: human respiratory syncytial virus
[6] = molecular target: Cytochrome P450 2C19 (Homo sapiens, UniProt P33261); experiment: Cytochrome panel assay with activity outcomes. Panel member name: p450-cyp2c19 Compounds with AC50 equal or less than 10 uM are considered active; type: functional; details: read-out: AC50
Chain of Cytochrome P450 2C19 (P33261 whole entry): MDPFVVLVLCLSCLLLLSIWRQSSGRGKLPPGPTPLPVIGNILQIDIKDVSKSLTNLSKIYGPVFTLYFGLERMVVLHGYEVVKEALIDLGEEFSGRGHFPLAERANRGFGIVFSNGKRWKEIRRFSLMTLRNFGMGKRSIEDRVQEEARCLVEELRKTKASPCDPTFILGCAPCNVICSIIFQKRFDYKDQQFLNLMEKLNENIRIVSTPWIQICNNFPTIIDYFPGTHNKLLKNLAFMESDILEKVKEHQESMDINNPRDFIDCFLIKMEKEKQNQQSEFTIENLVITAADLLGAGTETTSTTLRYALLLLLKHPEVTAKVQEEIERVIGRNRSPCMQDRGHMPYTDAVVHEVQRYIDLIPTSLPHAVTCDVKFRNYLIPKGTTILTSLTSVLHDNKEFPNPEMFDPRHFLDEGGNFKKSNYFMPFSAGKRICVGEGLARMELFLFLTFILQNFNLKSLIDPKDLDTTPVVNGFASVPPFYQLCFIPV

[7] = molecular target: Cytochrome P450 2D6 (Homo sapiens, UniProt P10635)
Chain of Cytochrome P450 2D6 (P10635 whole entry): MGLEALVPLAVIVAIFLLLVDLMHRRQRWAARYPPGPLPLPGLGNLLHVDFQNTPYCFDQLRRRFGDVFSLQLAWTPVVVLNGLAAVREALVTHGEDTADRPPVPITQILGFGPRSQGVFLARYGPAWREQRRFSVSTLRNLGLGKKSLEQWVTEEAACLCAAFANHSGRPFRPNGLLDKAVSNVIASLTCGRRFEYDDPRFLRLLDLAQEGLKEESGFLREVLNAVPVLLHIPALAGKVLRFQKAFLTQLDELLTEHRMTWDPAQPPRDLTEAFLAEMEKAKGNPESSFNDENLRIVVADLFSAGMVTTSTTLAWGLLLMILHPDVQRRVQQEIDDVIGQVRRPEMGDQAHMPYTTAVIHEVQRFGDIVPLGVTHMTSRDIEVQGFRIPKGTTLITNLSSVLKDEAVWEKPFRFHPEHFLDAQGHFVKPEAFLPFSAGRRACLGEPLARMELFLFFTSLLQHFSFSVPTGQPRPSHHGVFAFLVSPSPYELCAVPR

[8] = molecular target: T3, Heat shock factor protein 1 (Mus musculus, UniProt P38532); experiment: decrease of HSF1-responsive luciferase luminescence – cell-based, NIH3T3, dose retest, confirmation (AID 2382); type: functional;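 further: NIH3T3 fibroblasts with HSF1-driven luciferase reporter stressed by proteasome inhibitor MG132; luminescence from HSF1-driven luciferase expression after 8 hours of MG132 stress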
T3 sequence (P38532 whole entry): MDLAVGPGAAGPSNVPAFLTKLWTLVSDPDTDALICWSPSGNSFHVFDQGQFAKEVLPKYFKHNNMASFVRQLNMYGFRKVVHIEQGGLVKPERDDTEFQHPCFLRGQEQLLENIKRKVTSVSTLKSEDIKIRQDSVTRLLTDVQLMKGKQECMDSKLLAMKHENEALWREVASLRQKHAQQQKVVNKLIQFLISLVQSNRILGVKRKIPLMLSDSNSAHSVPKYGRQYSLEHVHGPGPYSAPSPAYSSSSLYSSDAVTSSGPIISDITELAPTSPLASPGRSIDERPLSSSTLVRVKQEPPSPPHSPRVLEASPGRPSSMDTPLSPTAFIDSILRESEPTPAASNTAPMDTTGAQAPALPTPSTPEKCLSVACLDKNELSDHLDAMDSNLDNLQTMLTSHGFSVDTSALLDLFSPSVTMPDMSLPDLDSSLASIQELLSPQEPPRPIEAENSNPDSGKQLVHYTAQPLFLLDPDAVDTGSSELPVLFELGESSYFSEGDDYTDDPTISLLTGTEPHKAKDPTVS

[9] = molecular target: T4, Cytochrome P450 1A2 (Homo sapiens, UniProt P05177);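 further: PubChem cytochrome P450 panel assay, CYP1A2 panel member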
T4 sequence (P05177 whole entry): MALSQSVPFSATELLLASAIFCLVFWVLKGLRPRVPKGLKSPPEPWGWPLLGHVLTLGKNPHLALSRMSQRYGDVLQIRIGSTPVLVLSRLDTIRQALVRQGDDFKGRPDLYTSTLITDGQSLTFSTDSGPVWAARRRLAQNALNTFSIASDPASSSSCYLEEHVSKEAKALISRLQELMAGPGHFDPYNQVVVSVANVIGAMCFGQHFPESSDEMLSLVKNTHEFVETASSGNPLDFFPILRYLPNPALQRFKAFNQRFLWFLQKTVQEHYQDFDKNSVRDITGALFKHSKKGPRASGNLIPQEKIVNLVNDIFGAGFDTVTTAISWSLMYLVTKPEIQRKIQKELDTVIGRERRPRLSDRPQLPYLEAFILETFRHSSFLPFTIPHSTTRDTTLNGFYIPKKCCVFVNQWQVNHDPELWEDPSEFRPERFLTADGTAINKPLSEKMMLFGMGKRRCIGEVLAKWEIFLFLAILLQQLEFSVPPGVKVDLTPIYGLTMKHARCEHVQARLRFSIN

## CCN(CC)c1ccc(NC(=O)CN(C)Cc2cccs2)cc1
[1]
  IC50: 90.9 µM (active)

## Oc1ccccc1/C=N/NC(=S)NC1CC2C=CC1C2 (configuration not stated)
[2]
  EC50: > 16 µM (not active)
[3]
  EC50: > 16 µM (not active)
[4]
  EC50: 5.04 µM (active)

## CCCCCCCNC(=O)C1(CC2CC(c3ccc(Cl)cc3)=NO2)CCN(C(=O)C2(C)CC2)CC1 (configuration not stated)
[5]
  CC50: 13.5 µM (active)

## Cc1c(C(=O)NCCSCc2c(F)cccc2Cl)cnn1-c1ccc(Cl)cc1
[5]
  CC50: 16.8 µM (active)

## NC(=O)C1CCN(C(=O)CN2C(=O)c3ccccc3S2(=O)=O)CC1
[6]
  AC50: 14.1 µM (inconclusive)

## Cc1cc(C)nc(N/N=C/c2c[nH]c3ccccc23)n1
[1]
  IC50: 63.2 µM (active)

## COc1ccc(N2CCN(c3ncccn3)CC2)cc1
[1]
  IC50: 82.9 µM (active)

## O=C(c1cnccn1)N1CCC2(CCCN(Cc3ccccc3)C2)CC1
[7]
  AC50: 7.94 µM (inconclusive)

## CCOc1cc(/C=N/NC(=O)CCCC(=O)NC2CCCCC2)ccc1O
[1]
  IC50: 69.6 µM (active)

## O=S(=O)(NCc1ccccn1)c1ccc(F)cc1
[8]
  EC50: > 195 µM (not active)

## O=C1c2ccccc2S(=O)(=O)N1CCCCN1CCN(c2ncccn2)CC1 [IPSAPIRONE]
[7]
  AC50: 20 µM (inconclusive)
[9]
  AC50: 31.6 µM (inconclusive)

## COc1cccc(-c2nc(NCCN3CCOCC3)c3ccccc3n2)c1
[6]
  AC50: 20 µM (inconclusive)

## Cc1nc2cc(-c3ccccc3)nn2c(C)c1CCC(=O)NC(C)c1ccc2c(c1)OCCO2 (configuration not stated)
[8]
  EC50: > 195 µM (not active)

## Cc1ccc(NC(=O)/C(=C\c2ccc3c(c2)OCO3)NC(=O)c2ccco2)cc1
[7]
  AC50: 15.8 µM (inconclusive)
[9]
  AC50: 11.2 µM (inconclusive)

## CCCc1nnc(NC(=O)CCC(=O)N2CCN(S(=O)(=O)c3ccc(F)cc3)CC2)s1
[8]
  EC50: > 195 µM (not active)

## O=C(CN1C(=O)C2C3C=CC(C3)C2C1=O)OCC(=O)c1ccc(Br)cc1 (configuration not stated)
[8]
  EC50: > 195 µM (not active)

## C#CCCCO/N=C1/C[C@@H](O)[C@@H](O)[C@@H]2[C@@H]3C(=O)N(Cc4ccccc4)C(=O)[C@H]3CC[C@H]12
[6]
  AC50: 5.01 µM (inconclusive)

## CC1CCCN(CCCOc2ccc(Cl)cc2Br)C1 (configuration not stated)
[8]
  EC50: > 195 µM (not active)

## O=C1NC(=O)N(Cc2ccccc2)C(=O)/C1=C/NCCN1CCNCC1
[8]
  EC50: > 195 µM (not active)

## Cc1ccccc1NC(=O)CN1CCC(n2nnc3ccccc32)CC1
[7]
  AC50: 0.01 µM (inconclusive)

## O=C(C1CCCN(S(=O)(=O)c2cccc3nsnc23)C1)N1CC=C(c2ccccc2)CC1 (configuration not stated)
[7]
  AC50: 5.01 µM (inconclusive)
[9]
  AC50: 14.1 µM (inconclusive)

## CC(C)CC(=O)C[C@H](O)C(Cl)(Cl)Cl
[6]
  AC50: 7.94 µM (inconclusive)

## CCOc1ccc(N(CC(=O)NCc2ccc(C)cc2)S(=O)(=O)c2c(C)nc(O)nc2O)cc1
[2]
  EC50: > 150 µM (not active)
[3]
  EC50: > 150 µM (not active)
[4]
  EC50: > 150 µM (not active)

## COc1cc(C(=O)NCCC(=O)NCc2ccc3c(c2)OCO3)cc(OC)c1OC
[7]
  AC50: 25.1 µM (inconclusive)
[6]
  AC50: 28.2 µM (inconclusive)
